We go through 1 molecule from publication PMC11486972 (Hepatology (Baltimore, Md.), 2024).

The assay has as its target cathepsin S (CTSS) (Homo sapiens, UniProt P25774). The assay can be described thus: cell-free enzyme assay with recombinant CTSS. Type of assay: biochemical.

cathepsin S (CTSS), sequence (P25774 115-331): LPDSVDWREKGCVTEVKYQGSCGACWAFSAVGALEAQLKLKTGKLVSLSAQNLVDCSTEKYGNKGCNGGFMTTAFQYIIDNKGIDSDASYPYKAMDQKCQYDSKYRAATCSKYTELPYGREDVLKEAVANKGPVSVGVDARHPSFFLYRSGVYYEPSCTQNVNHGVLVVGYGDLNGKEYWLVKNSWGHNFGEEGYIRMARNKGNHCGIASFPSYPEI

In the case of `CN1CCN(C(=O)N[C@@H](Cc2ccccc2)C(=O)N[C@H](/C=C/S(=O)(=O)c2ccccc2)CCc2ccccc2)CC1` [K11777], the EC50 (commonly the concentration at which the effect is half-maximal) amounted to 900 nM.
